In one assay the test system is HCV replicon. Briefly: Replicon based assay of HCV replication inhibition (NPT ELISA). It counts as cell-based, Hepatitis C virus. Conditions: Hepatitis C virus, Huh-7, 72 h, Table III; Huh-7 HCV replicon-containing cells, three days; read-out: Activity. A digest of the protocol: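 Huh-7 cells carrying a bicistronic HCV replicon (neo, EMCV-IRES-driven NS3–NS5B) treated overnight after seeding with usually 6 concentrations, 10 to 0.03 micromolar, for three days at 37° C without G418. Replication read as NPT level by captured ELISA; matched-DMSO wells and interferon alpha as controls.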
As to `CCCCCCCc1ccc(Nc2nc(Cc3cccc(F)c3)cs2)cc1` [compound 519, 4-(3-fluorobenzyl)-N-(4-heptylphenyl)thiazol-2-amine], the EC50 is 1000 to 10000 nM. In the case of `CCCCCOc1ccc(Nc2nc(-c3cncc(C#N)c3)cs2)cc1C(F)(F)F` [compound 520, 5-(2-(3-(trifluoromethyl)-4-(pentyloxy)phenylamino)thiazol-4-yl)pyridine-3-carbonitrile], the EC50 is less than 1000 nM.

As to `CCCCCOc1ccc(Nc2nc(-c3ccc[n+]([O-])c3)cs2)cc1C(F)(F)F` [compound 521], the EC50 was less than 1000 nM. The same measure, in the same setting: the result for `CCCCCCCCOc1ccc(Nc2nc(-c3ccc[n+]([O-])c3)cs2)cc1` [compound 522] reads less than 1000 nM; that for `CCCCCCCOc1ccc(Nc2nc(-c3ccc(NC)nc3)cs2)cc1` [compound 523, 5-(2-(4-(heptyloxy)phenylamino)thiazol-4-yl)-N-methylpyridin-2-amine], less than 1000 nM; that for `CCCCCCCCc1ccc(Nc2nc(-c3ccc[n+]([O-])c3)cs2)cc1` [compound 524], less than 1000 nM.

On to `CCCCCCCOc1ccc(Nc2nc(-c3ccc[n+]([O-])c3)cs2)cc1` [compound 525], for which the EC50 is less than 1000 nM. Turning to `CCCCCCCCOc1ccc(Nc2nc(-c3ccc(F)nc3)cs2)cc1C(F)(F)F` [compound 526, N-(3-(trifluoromethyl)-4-(octyloxy)phenyl)-4-(6-fluoropyridin-3-yl)thiazol-2-amine], the EC50 is less than 1000 nM. On to `CCCCCOc1ccc(Nc2nc(-c3ccc(F)nc3)cs2)cc1F` [compound 527, N-(3-fluoro-4-(pentyloxy)phenyl)-4-(6-fluoropyridin-3-yl)thiazol-2-amine], for which the EC50 was less than 1000 nM.

The assay is the same for the next values; noted with them: Hepatitis C virus, replicon based assay of HCV replication inhibition; Table II; read-out: Activity.
Take `CCCCCCCc1ccc(Nc2nc(-c3cccnc3)cs2)cc1` [compound 483, N-(4-heptylphenyl)-4-(pyridin-3-yl)thiazol-2-amine]: the EC50 was less than 1000 nM. Same read-out and setting: the same measure for `CCCCCOc1ccc(Nc2nc3c(s2)Cc2ccccc2-3)cc1C(F)(F)F` [compound 484, N-(3-(trifluoromethyl)-4-(pentyloxy)phenyl)-8H-indeno[1,2-d]thiazol-2-amine]: less than 1000 nM; for `CCCCCCCCOc1ccc(Nc2nc3c(s2)Cc2ccccc2-3)cc1` [compound 485, N-(4-(octyloxy)phenyl)-8H-indeno[1,2-d]thiazol-2-amine]: less than 1000 nM. Still for that read-out and setting: the result for `CCCCCOc1ccc(Nc2nc(-c3ccc(F)nc3)cs2)cc1C(F)(F)F` [compound 486, N-(3-(trifluoromethyl)-4-(pentyloxy)phenyl)-4-(6-fluoropyridin-3-yl)thiazol-2-amine] reads less than 1000 nM; that for `CCCCCCCOc1ccc(Nc2nc(-c3ccc(F)nc3)cs2)cc1` [compound 487, 4-(6-fluoropyridin-3-yl)-N-(4-(heptyloxy)phenyl)thiazol-2-amine], less than 1000 nM. Same read-out and setting: the result for `CCCCCCCCOc1ccc(Nc2nc(-c3ccc(F)nc3)cs2)cc1` [compound 488] reads less than 1000 nM; that for `CCCCCCCCN(C)c1ccc(Nc2nc(-c3ccc(F)nc3)cs2)cc1C(F)(F)F` [compound 489, 2-(trifluoromethyl)-N^4-(4-(6-fluoropyridin-3-yl)thiazol-2-yl)-N^1-methyl-N^1-octylbenzene-1,4-diamine], less than 1000 nM; that for `CCCCCCCCc1ccc(Nc2nc(-c3ccc(F)nc3)cs2)cc1` [compound 490, 4-(6-fluoropyridin-3-yl)-N-(4-octylphenyl)thiazol-2-amine], less than 1000 nM. On to `CCCCCCCCOc1ccc(Nc2nc(Cc3ccccc3)cs2)cn1` [compound 491, N-(4-benzylthiazol-2-yl)-6-(octyloxy)pyridin-3-amine], for which the EC50 was 1000 to 10000 nM. On the same count and under the same terms, the result for `CCCCCCCCN(C)c1ccc(Nc2nc(Cc3ccccc3)cs2)cc1C(F)(F)F` [compound 492, N^4-(4-benzylthiazol-2-yl)-2-(trifluoromethyl)-N^1-methyl-N^1-octylbenzene-1,4-diamine] reads 1000 to 10000 nM; that for `CCCCCCCCN(C)c1ccc(Nc2nc(Cc3ccccc3)cs2)cc1` [compound 493, N^1-(4-benzylthiazol-2-yl)-N^4-methyl-N^4-octylbenzene-1,4-diamine], 1000 to 10000 nM. The same measure, in the same setting: the result for `Fc1ccc(-c2csc(Nc3ccc(OCCCC4CCCC4)c(C(F)(F)F)c3)n2)cc1` [compound 494, N-(4-(3-cyclopentylpropoxy)-3-(trifluoromethyl)phenyl)-4-(4-fluorophenyl)thiazol-2-amine] reads less than 1000 nM; that for `FC(F)(F)c1cc(Nc2nc(-c3cccnc3)cs2)ccc1OCCCC1CCCC1` [compound 495, N-(4-(3-cyclopentylpropoxy)-3-(trifluoromethyl)phenyl)-4-(pyridin-3-yl)thiazol-2-amine], less than 1000 nM; that for `Cc1ccc(-c2csc(Nc3ccc(OCCCC4CCCC4)c(C(F)(F)F)c3)n2)cn1` [compound 496, N-(4-(3-cyclopentylpropoxy)-3-(trifluoromethyl)phenyl)-4-(6-methylpyridin-3-yl)thiazol-2-amine], less than 1000 nM. `CCCCCCCCOc1ccc(Nc2nc(Cc3cccnc3)cs2)cn1` [compound 497, 6-(octyloxy)-N-(4-((pyridin-3-yl)methyl)thiazol-2-yl)pyridin-3-amine]: the EC50 is 1000 to 10000 nM.

Take `CCCCCCCCOc1ccc(Nc2nc(Cc3cccc(F)c3)cs2)cn1` [compound 498, N-(4-(3-fluorobenzyl)thiazol-2-yl)-6-(octyloxy)pyridin-3-amine]: the EC50 lay in the range of 1000 to 10000 nM. Still for that read-out and setting: the result for `CCCCCCCCN(C)c1ccc(Nc2nc(Cc3cccc(F)c3)cs2)cc1` [compound 499, N^1-(4-(3-fluorobenzyl)thiazol-2-yl)-N^4-methyl-N^4-octylbenzene-1,4-diamine] reads 1000 to 10000 nM. The same measure, in the same setting: the result for `CCCCCCCCN(C)c1ccc(Nc2nc(Cc3cccnc3)cs2)cc1C(F)(F)F` [compound 500, 2-(trifluoromethyl)-N^1-methyl-N^1-octyl-N^4-(4-((pyridin-3-yl)methyl)thiazol-2-yl)benzene-1,4-diamine] reads less than 1000 nM; that for `CCCCCCCCOc1ccc(Nc2nc(Cc3cccnc3)cs2)cc1` [compound 501, N-(4-(octyloxy)phenyl)-4-((pyridin-3-yl)methyl)thiazol-2-amine], 1000 to 10000 nM. On the same count and under the same terms, the result for `CCCCCCCCN(C)c1ccc(Nc2nc(Cc3cccnc3)cs2)cc1` [compound 503, N^1-methyl-N^1-octyl-N^4-(4-((pyridin-3-yl)methyl)thiazol-2-yl)benzene-1,4-diamine] reads greater than 10000 nM; that for `CCCCCCCc1ccc(Nc2nc(Cc3cccnc3)cs2)cc1` [compound 504, N-(4-heptylphenyl)-4-((pyridin-3-yl)methyl)thiazol-2-amine], 1000 to 10000 nM. For the molecule `CCCCCOc1ccc(Nc2nc(-c3cncnc3)cs2)cc1C(F)(F)F` [compound 505, N-(3-(trifluoromethyl)-4-(pentyloxy)phenyl)-4-(pyrimidin-5-yl)thiazol-2-amine], the EC50 was less than 1000 nM. `Fc1cc(Nc2nc(-c3cncnc3)cs2)ccc1OCC1CCCCC1` [compound 506, N-(4-(cyclohexylmethoxy)-3-fluorophenyl)-4-(pyrimidin-5-yl)thiazol-2-amine]: the EC50 is less than 1000 nM. On the same count and under the same terms, the result for `CCCCCCCCOc1ccc(Nc2nc(-c3cncnc3)cs2)cc1` [compound 507, N-(4-(octyloxy)phenyl)-4-(pyrimidin-5-yl)thiazol-2-amine] reads less than 1000 nM; that for `Cc1ccc(-c2csc(Nc3ccc(OCC4CCCCC4)c(F)c3)n2)cn1` [compound 508, N-(4-(cyclohexylmethoxy)-3-fluorophenyl)-4-(6-methylpyridin-3-yl)thiazol-2-amine], less than 1000 nM. Still for that read-out and setting: the same measure for `Fc1ccc(-c2csc(Nc3ccc(OCC4CCCCC4)c(F)c3)n2)cc1` [compound 509, N-(4-(cyclohexylmethoxy)-3-fluorophenyl)-4-(4-fluorophenyl)thiazol-2-amine]: less than 1000 nM; for `CCCCCOc1ccc(Nc2nc(-c3ccc(C#N)nc3)cs2)cc1C(F)(F)F` [compound 510, 5-(2-(3-(trifluoromethyl)-4-(pentyloxy)phenylamino)thia-zol-4-yl)pyridin-2-carbonitrile]: less than 1000 nM; for `N#Cc1ccc(-c2csc(Nc3ccc(OCC4CCCCC4)c(F)c3)n2)cn1` [compound 511, 5-(2-(4-(cyclohexylmethoxy)-3-fluorophenylamino)thiazol-4-yl)pyridine-2-carbonitrile]: greater than 10000 nM.

For the molecule `CCCCCCCCOc1ccc(Nc2nc(-c3ccc(C#N)nc3)cs2)cc1` [compound 512, 5-(2-(4-(octyloxy)phenylamino)thia-zol-4-yl)pyridine-2-carbonitrile], the EC50 was less than 1000 nM. Still for that read-out and setting: the result for `CCCCCCCCOc1ccc(Nc2nc(Cc3ccccc3)cs2)cc1` [compound 513, 4-benyl-N-(4-(octyloxy)phenyl)thiazol-2-amine] reads greater than 10000 nM; that for `CCCCCOc1ccc(Nc2nc(Cc3ccccc3)cs2)cc1C(F)(F)F` [compound 514, 4-benzyl-N-(3-(trifluoromethyl)-4-(pentyloxy)phenyl)thiazol-2-amine], greater than 10000 nM. The same measure, in the same setting: the same measure for `CCCCCCCc1ccc(Nc2nc(Cc3ccccc3)cs2)cc1` [compound 515, 4-benzyl-N-(4-heptylphenyl)thiazol-2-amine]: greater than 10000 nM; for `CCCCCCCCOc1ccc(Nc2nc(Cc3cccc(F)c3)cs2)cc1` [compound 516, 4-(3-fluorobenzyl)-N-(4-(octyloxy)phenyl)thiazol-2-amine]: greater than 10000 nM; for `CCCCCOc1ccc(Nc2nc(Cc3cccc(F)c3)cs2)cc1C(F)(F)F` [compound 517, 4-(3-fluorobenzyl)-N-(3-(trifluoromethyl)-4-(pentyloxy)phenyl)thiazol-2-amine]: 1000 to 10000 nM. Take `CCCCCCCCN(C)c1ccc(Nc2nc(Cc3cccc(F)c3)cs2)cc1C(F)(F)F` [compound 518, N^4-(4-(3-fluorobenzyl)thiazol-2-yl)-2-(trifluoromethyl)-N^1-methyl-N^1-octylbenzene-1,4-diamine]: the EC50 was in the range of 1000 to 10000 nM.

The record behind these values is patent publication US8088806B2 (Achillion Pharmaceuticals, Inc., priority 2005, dated 2012).
